Converted amounts (≈) assume the structure as drawn. The source made the active and inactive calls. No cut-off for these calls is given here.
Legend:
Staphylococcus aureus = assay: Antimicrobial activity against Staphylococcus aureus ATCC 29213 assessed clear zone in inhibition per disk by CLSI disk diffusion susceptibility assay; type: functional
BXPC-3 = assay: Cytotoxicity against human BxPC3 cells after 48 hrs by sulforhodamine B assay; type: functional
DU-145 = assay: Cytotoxicity against human DU145 cells after 48 hrs by sulforhodamine B assay; type: functional
[1] = Inhibition of tubulin polymerization
Neisseria gonorrhoeae = assay: Antimicrobial activity against Neisseria gonorrhoeae ATCC 49226 assessed clear zone of inhibition measured per disk by CLSI disk diffusion susceptibility assay; type: functional
NCI-H460 = assay: Cytotoxicity against human NCI-H460 cells after 48 hrs by sulforhodamine B assay; type: functional
P388 = assay: Cytotoxicity against mouse P388 cells after 48 hrs by sulforhodamine B assay; type: functional; conditions: P388, 48 h, read-out: ED50 (the source's name)
Micrococcus luteus = assay: Antimicrobial activity against Micrococcus luteus Presque Isle 456 assessed clear zone in inhibition per disk by CLSI disk diffusion susceptibility assay; type: functional
Escherichia coli = assay: Antimicrobial activity against Escherichia coli ATCC 25922 assessed clear zone in inhibition per disk by CLSI disk diffusion susceptibility assay; type: functional
A498 = assay: Cytotoxicity against human A498 cells after 48 hrs by sulforhodamine B assay; type: functional
[2] = system: Stenotrophomonas maltophilia; assay: Antimicrobial activity against Stenotrophomonas maltophilia ATCC 13637 assessed clear zone in inhibition per disk by CLSI disk diffusion susceptibility assay; type: functional
Streptococcus pneumoniae = assay: Antimicrobial activity against Streptococcus pneumoniae ATCC 6303 assessed clear zone in inhibition per disk by CLSI disk diffusion susceptibility assay; type: functional
SK-MEL-5 = assay: Cytotoxicity against human SK-MEL-5 cells after 48 hrs by sulforhodamine B assay; type: functional
KM-20L2 = assay: Cytotoxicity against human KM20L2 cells after 48 hrs by sulforhodamine B assay; type: functional
MCF7 = assay: Cytotoxicity against human MCF7 cells after 48 hrs by sulforhodamine B assay; type: functional
Cryptococcus neoformans = assay: Antimicrobial activity against Cryptococcus neoformans ATCC 90112 assessed clear zone in inhibition per disk by CLSI disk diffusion susceptibility assay; type: functional
SF-268 = assay: Cytotoxicity against human SF268 cells after 48 hrs by sulforhodamine B assay; type: functional
Candida albicans = assay: Antimicrobial activity against Candida albicans ATCC 90028 assessed clear zone in inhibition per disk by CLSI disk diffusion susceptibility assay; type: functional
SF-295 = assay: Cytotoxicity against human SF295 cells after 48 hrs by sulforhodamine B assay; type: functional
Enterococcus faecalis = assay: Antimicrobial activity against Enterococcus faecalis ATCC 29212 assessed clear zone in inhibition per disk by CLSI disk diffusion susceptibility assay; type: functional
OVCAR-3 = assay: Cytotoxicity against human OVCAR-3 cells after 48 hrs by sulforhodamine B assay; type: functional
Enterobacter cloacae = assay: Antimicrobial activity against Enterobacter cloacae ATCC 13047 assessed clear zone in inhibition per disk by CLSI disk diffusion susceptibility assay; type: functional

Compound	MIC (Staphylococcus aureus) [µg]	GI50 (BXPC-3; BXPC-3, 48 h) [µg/mL]	IC50 [1] [µM]	MIC (Neisseria gonorrhoeae) [µg]	GI50 (NCI-H460; NCI-H460, 48 h) [µg/mL]	EC50 (P388) [µg/mL]	MIC (Micrococcus luteus) [µg]	MIC (Escherichia coli) [µg]	GI50 (A498)	MIC [2] [µg]	MIC (Streptococcus pneumoniae) [µg]	GI50 (SK-MEL-5)	GI50 (KM-20L2; KM-20L2, 48 h) [µg/mL]	GI50 (MCF7)	MIC (Cryptococcus neoformans) [µg]	MIC (Candida albicans) [µg]	MIC (Enterococcus faecalis) [µg]	MIC (Enterobacter cloacae) [µg]	GI50 (SF-295)	GI50 (OVCAR-3)	other results
COc1cc(/C=C/[N+](=O)[O-])cc(O[Si](C)(C)C(C)(C)C)c1OC	3.12	> 10	12	3.12	> 10	32.6 (≈ 96 µM)	1.56	>100	inactive	>100	3.12	inactive	> 10	inactive	25	>100	3.12	>100			GI50 (DU-145; DU-145, 48 h): > 10 µg/mL; GI50 (SF-268): inactive; GI50 (SF-295; SF-295, 48 h): > 10 µg/mL; GI50 (OVCAR-3; OVCAR-3, 48 h): > 10 µg/mL
CC(=O)Nc1ccc(/C=C/[N+](=O)[O-])cc1	<6.25		11	<6.25	0.7 (≈ 3.39 µM)	6.2 (≈ 30.1 µM)	>100	>100		>100	<6.25		1.1 (≈ 5.33 µM)	inactive	<6.25	6.25	>100	>100			GI50 (BXPC-3): inactive; GI50 (DU-145): inactive; GI50 (A498; A498, 48 h): 0.96 µg/mL (≈ 4.66 µM); GI50 (SK-MEL-5; SK-MEL-5, 48 h): 0.34 µg/mL (≈ 1.65 µM); GI50 (SF-268): inactive; GI50 (SF-295; SF-295, 48 h): 1.4 µg/mL (≈ 6.79 µM); GI50 (OVCAR-3; OVCAR-3, 48 h): 0.65 µg/mL (≈ 3.15 µM)
COc1ccc(/C=C/[N+](=O)[O-])cc1OP(=O)(OCc1ccccc1)OCc1ccccc1	3.12	> 10	10	0.78	> 10	2.2 (≈ 4.83 µM)	3.12	>100	inactive	>100	>100	inactive	> 10	inactive	>100	>100	6.25	>100			GI50 (DU-145; DU-145, 48 h): > 10 µg/mL; GI50 (SF-268): inactive; GI50 (SF-295; SF-295, 48 h): > 10 µg/mL; GI50 (OVCAR-3; OVCAR-3, 48 h): > 10 µg/mL
COc1ccc(/C=C\c2cc(OC)c(OC)c(OC)c2)cc1O [COMBRETASTATIN A4]		0.39 (≈ 1.23 µM)	2.1		0.0006 (≈ 0.0019 µM)	0.03 (≈ 0.0948 µM)			inactive			inactive	0.34 (≈ 1.07 µM)	inactive					inactive	inactive	GI50 (DU-145; DU-145, 48 h): 0.0008 µg/mL (≈ 0.00253 µM)
Oc1ccc(/C=C/c2cc(O)cc(O)c2)cc1 [RESVERATROL]			> 40						inactive			inactive							inactive	inactive	
O=[N+]([O-])/C=C/c1ccc(OP(=O)([O-])[O-])cc1.[Na+].[Na+]	>100	> 10	> 40	>100	> 10	47.8	>100	>100	inactive	>100	>100	inactive	> 10		>100	>100	>100	>100	inactive	inactive	GI50 (DU-145; DU-145, 48 h): 57.8 µg/mL; GI50 (MCF7; MCF7, 48 h): > 10 µg/mL; GI50 (SF-268; SF-268, 48 h): > 10 µg/mL
Oc1ccc(/C=C\c2cc(O)cc(O)c2)cc1 [CIS-RESVERATROL]									inactive			inactive	22 (≈ 96.4 µM)						inactive	inactive	GI50 (SF-268; SF-268, 48 h): 5 µg/mL (≈ 21.9 µM)
O=[N+]([O-])/C=C/c1ccc(OP(=O)(OCc2ccccc2)OCc2ccccc2)cc1	3.12	> 10	10	0.78	> 10	7 (≈ 16.5 µM)	6.25	>100	inactive	>100	>100	inactive	> 10		25	>100	6.25	>100	inactive	inactive	GI50 (DU-145; DU-145, 48 h): > 10 µg/mL; GI50 (MCF7; MCF7, 48 h): > 10 µg/mL; GI50 (SF-268; SF-268, 48 h): > 10 µg/mL
COc1cc(/C=C/[N+](=O)[O-])c(OC)c(OC)c1OC	<0.78		5.4	<0.78		1.3 (≈ 4.83 µM)	1.56	12.5	inactive	25	6.25	inactive		inactive	0.78	0.78	3.12	>100	inactive	inactive	GI50 (BXPC-3): inactive; GI50 (DU-145): inactive; GI50 (NCI-H460): inactive; GI50 (KM-20L2): inactive; GI50 (SF-268): inactive
COc1cc(OC)c(/C=C/[N+](=O)[O-])c(OC)c1	>100			>100	0.32 (≈ 1.34 µM)	14 (≈ 58.5 µM)	>100	>100		>100	>100		0.38 (≈ 1.59 µM)	inactive	>100	>100	>100	>100			GI50 (BXPC-3): inactive; GI50 (DU-145): inactive; GI50 (A498; A498, 48 h): 0.36 µg/mL (≈ 1.5 µM); GI50 (SK-MEL-5; SK-MEL-5, 48 h): 0.61 µg/mL (≈ 2.55 µM); GI50 (SF-268): inactive; GI50 (SF-295; SF-295, 48 h): 0.45 µg/mL (≈ 1.88 µM); GI50 (OVCAR-3; OVCAR-3, 48 h): 0.42 µg/mL (≈ 1.76 µM)
COc1ccc(/C=C/c2cc(OC)c(OC)c(OC)c2)cc1O [E-COMBRETASTATIN A-4]		3.9 (≈ 12.3 µM)	33		0.038 (≈ 0.12 µM)	0.28 (≈ 0.885 µM)			inactive			inactive		inactive					inactive	inactive	GI50 (DU-145; DU-145, 48 h): 0.037 µg/mL (≈ 0.117 µM); GI50 (KM-20L2): inactive; GI50 (SF-268): inactive

From ChEMBL document CHEMBL1152576, “E-Combretastatin and E-resveratrol structural modifications: antimicrobial and cancer cell growth inhibitory beta-E-nitrostyrenes” (Bioorg Med Chem, 2009)
